Read-outs that look alike come from different tables or passages of the source.
How the values were obtained:
Format in all cases: cell-based
KB = experiment: CellTiter-Glo cell viability, KB (human oral cancer cell line)
Description: (§1) 15 g of the commercially available 1,3-dihydroxyacetone in the solid powder form was added into 100 mL of 5% glucose (infusion bottle), then filled into 100 bottles.
(§2) After digesting the cells and counting (counting suspended cells directly), the cells were diluted to 1.25×10^5 cells/ml, inoculated into a 384-well plate (5000 cells/well) with 40 μl per well, centrifuged at 1500 rpm for 1 min, placed into the incubator and incubated overnight.
(§3) The medicaments were diluted in gradient with a 5% glucose solution to 5×, respectively. Each well was dosed with 10 μl medicament, with 4 wells (n=4) for each concentration. The cell viability was measured with Luminescence Cell Viability Assay kit after incubating for 72 hours in an incubator.
(§4) CellTiter-Glo reagent was added into each well, the volume of which is the same as that of medium. It was shaked on a shaker for 5 min, centrifuged at 1500 rpm for 1 min, and incubated in the dark at room temperature for 15 min. Then the chemiluminescence was detected with BMG PHERAstar.
(§5) The cell viability was calculated by using the following formula: Cell viability (Viability %)=100%×(LUMsample to be measured−LUMblank)/(LUMsolvent control−LUMblank)
(§6) The curve of Log[concentration] versus cell viability was fitted using Prism 6 to calculate IC50 of sample for each cell line.

A431 = experiment: CellTiter-Glo cell viability, A431 (human cutaneous squamous cell carcinoma)
Description: as §1, §2, §3, §4, §5, §6

A549 = experiment: CellTiter-Glo cell viability, A549 (human non-small cell lung cancer cell)
Description: as §1, §2, §3, §4, §5, §6

Jurkat = experiment: CellTiter-Glo cell viability, Jurkat (human T lymphoblastic leukemia cell)
Description: as §1, §2, §3, §4, §5, §6

HCT116 = experiment: CellTiter-Glo cell viability, HCT116 (human colon cancer cell)
Description: as §1, §2, §3, §4, §5, §6

HepG2 = experiment: CellTiter-Glo cell viability, HepG2 (human hepatoma cell line)
Description: as §1, §2, §3, §4, §5, §6

HCCLM3 = experiment: CellTiter-Glo cell viability, HCCLM3 (human high metastatic hepatoma cell)
Description: as §1, §2, §3, §4, §5, §6

PANC-1 = experiment: CellTiter-Glo cell viability, PANC-1 (human pancreatic cancer cell line)
Description: as §1, §2, §3, §4, §5, §6

WIL2-S = experiment: CellTiter-Glo cell viability, WIL2-S (human B lymphocyte)
Description: as §1, §2, §3, §4, §5, §6

Calu-6 = experiment: CellTiter-Glo cell viability, Calu-6 (human degenerative cancer cell)
Description: as §1, §2, §3, §4, §5, §6

TT = experiment: CellTiter-Glo cell viability, TT (human thyroid cancer cell); conditions: 72 hours
Description: as §1, §2, §3, §4, §5, §6

SGC7901 = experiment: CellTiter-Glo cell viability, SGC7901 (human gastric adenocarcinoma cell)
Description: as §1, §2, §3, §4, §5, §6

SW480 = experiment: CellTiter-Glo cell viability, SW480 (human colorectal cancer cell)
Description: as §1, §2, §3, §4, §5, §6

FaDu = experiment: CellTiter-Glo cell viability, FaDu (human pharyngeal squamous cell)
Description: as §1, §2, §3, §4, §5, §6

A673 = experiment: CellTiter-Glo cell viability, A673 (human rhabdomyoma cell)
Description: as §1, §2, §3, §4, §5, §6

SH-SY5Y = experiment: CellTiter-Glo cell viability, SH-SY5Y (human neuroblastoma cell)
Description: as §1, §2, §3, §4, §5, §6

C-33A = experiment: CellTiter-Glo cell viability, C-33A (human cervical cancer cell)
Description: as §1, §2, §3, §4, §5, §6

S180 = experiment: CellTiter-Glo cell viability, S180 (S180 sarcoma cells)
Description: as §1, §2, §3, §4, §5, §6

T24 = experiment: CellTiter-Glo cell viability, T24 (human bladder transitional cell carcinoma cell)
Description: as §1, §2, §3, §4, §5, §6

Caki-1 = experiment: CellTiter-Glo cell viability, Caki-1 (human renal clear cell carcinoma skin metastatic cell)
Description: as §1, §2, §3, §4, §5, §6

BEL-7402 = experiment: CellTiter-Glo cell viability, BEL-7402 (human hepatoma cell line)
Description: as §1, §2, §3, §4, §5, §6

H460 = experiment: CellTiter-Glo cell viability, H460 (human large cell lung cancer cell line)
Description: as §1, §2, §3, §4, §5, §6

SMMC-7721 = experiment: CellTiter-Glo cell viability, SMMC-7721 (human hepatoma cell line)
Description: as §1, §2, §3, §4, §5, §6

HL-60 = experiment: CellTiter-Glo cell viability, HL-60 (human leukemic cell line)
Description: as §1, §2, §3, §4, §5, §6

U87MG = experiment: CellTiter-Glo cell viability, U87MG (human spongioblastoma cell line)
Description: as §1, §2, §3, §4, §5, §6

DU145 = experiment: CellTiter-Glo cell viability, DU145 (human prostate cancer cell)
Description: as §1, §2, §3, §4, §5, §6

TF1-α = experiment: CellTiter-Glo cell viability, TF1-α (human erythroleukemia cell)
Description: as §1, §2, §3, §4, §5, §6

HCC1937 = experiment: CellTiter-Glo cell viability, HCC1937 (human breast cancer cell)
Description: as §1, §2, §3, §4, §5, §6

[1] = Homo sapiens, 72 h, read-out: IC50 calculated based on the concentration of dihydroxyacetone

## N.N.[Cl][Pt][Cl] [DDP, cis-diammine platinum dichloride, reference compound]
KB; 72 hours, n=4, read-out: IC50
  IC50: 2 µM
A431; A431, 72 hours, n=4, read-out: IC50
  IC50: 9.29 µM
A549; A549, 72 hours, n=4, read-out: IC50
  IC50: 4.1 µM
Jurkat; 72 hours, n=4, read-out: IC50
  IC50: 0.66 µM
HCT116; HCT116, 72 hours, n=4, read-out: IC50
  IC50: 22.9 µM
HepG2; HepG2, 72 hours, n=4, read-out: IC50
  IC50: 13.9 µM
HCCLM3; HCCLM3, 72 hours, n=4, read-out: IC50
  IC50: 183 µM
PANC-1; PANC-1, 72 hours, n=4, read-out: IC50
  IC50: 22.4 µM
WIL2-S; WIL2-S, 72 hours, n=4, read-out: IC50
  IC50: 9.89 µM
Calu-6; Calu-6, 72 hours, n=4, read-out: IC50
  IC50: 220 µM
TT; n=4, read-out: IC50
  IC50: 9.72 µM
SGC7901; SGC7901, 72 hours, n=4, read-out: IC50
  IC50: 24 µM
SW480; SW480, 72 hours, n=4, read-out: IC50
  IC50: 16.7 µM
FaDu; 72 hours, n=4, read-out: IC50
  IC50: 11.5 µM
A673; A673, 72 hours, n=4, read-out: IC50
  IC50: 1.11 µM
SH-SY5Y; 72 hours, n=4, read-out: IC50
  IC50: 2.89 µM
C-33A; C-33A, 72 hours, n=4, read-out: IC50
  IC50: 2.85 µM
S180; S180, 72 hours, n=4, read-out: IC50
  IC50: 0.26 µM
T24; T24, 72 hours, n=4, read-out: IC50
  IC50: 6.22 µM
Caki-1; Caki-1, 72 hours, n=4, read-out: IC50
  IC50: 13.1 µM
BEL-7402; BEL-7402, 72 hours, n=4, read-out: IC50
  IC50: 5.37 µM
H460; H460, 72 hours, n=4, read-out: IC50
  IC50: 1.67 µM
SMMC-7721; SMMC-7721, 72 hours, n=4, read-out: IC50
  IC50: 6.19 µM
HL-60; HL-60, 72 hours, n=4, read-out: IC50
  IC50: 1.82 µM
U87MG; U87MG, 72 hours, n=4, read-out: IC50
  IC50: 24 µM
DU145; DU145, 72 hours, n=4, read-out: IC50
  IC50: 4.54 µM
TF1-α; TF1-α, 72 hours, n=4, read-out: IC50
  IC50: 3.76 µM
HCC1937; HCC1937, 72 hours, n=4, read-out: IC50
  IC50: 14.8 µM

## O=C(CO)CO [Dihydroxyacetone, 1,3-dihydroxyacetone]
KB; [1]
  IC50: 7510 µM
A431; Homo sapiens, A-431, 72 h, read-out: IC50 calculated based on the concentration of dihydroxyacetone
  IC50: 5640 µM
A549; Homo sapiens, A549, 72 h, read-out: IC50 calculated based on the concentration of dihydroxyacetone
  IC50: 4390 µM
Jurkat; [1]
  IC50: 1830 µM
HCT116; Homo sapiens, HCT-116, 72 h, read-out: IC50 calculated based on the concentration of dihydroxyacetone
  IC50: 6820 µM
HepG2; Homo sapiens, HepG2, 72 h, read-out: IC50 calculated based on the concentration of dihydroxyacetone
  IC50: 12100 µM
HCCLM3; Homo sapiens, HCCLM3, 72 h, read-out: IC50 calculated based on the concentration of dihydroxyacetone
  IC50: 5480 µM
PANC-1; Homo sapiens, PANC-1, 72 h, read-out: IC50 calculated based on the concentration of dihydroxyacetone
  IC50: 7360 µM
WIL2-S; Homo sapiens, Lymphocyte, 72 h, read-out: IC50 calculated based on the concentration of dihydroxyacetone
  IC50: 12100 µM
Calu-6; Homo sapiens, Calu-6, 72 h, read-out: IC50 calculated based on the concentration of dihydroxyacetone
  IC50: 11000 µM
TT; Homo sapiens, n=4, read-out: IC50 calculated based on the concentration of dihydroxyacetone
  IC50: 3620 µM
SGC7901; Homo sapiens, SGC-7901, 72 h, read-out: IC50 calculated based on the concentration of dihydroxyacetone
  IC50: 3740 µM
SW480; Homo sapiens, SW480, 72 h, read-out: IC50 calculated based on the concentration of dihydroxyacetone
  IC50: 7950 µM
FaDu; [1]
  IC50: 9420 µM
A673; Homo sapiens, A673, 72 h, read-out: IC50 calculated based on the concentration of dihydroxyacetone
  IC50: 3770 µM
SH-SY5Y; [1]
  IC50: 1810 µM
C-33A; Homo sapiens, C-33-A, 72 h, read-out: IC50 calculated based on the concentration of dihydroxyacetone
  IC50: 5090 µM
S180; S-180, 72 h, read-out: IC50 calculated based on the concentration of dihydroxyacetone
  IC50: 950 µM
T24; Homo sapiens, T-24, 72 h, read-out: IC50 calculated based on the concentration of dihydroxyacetone
  IC50: 7670 µM
Caki-1; Homo sapiens, CAKI-1, 72 h, read-out: IC50 calculated based on the concentration of dihydroxyacetone
  IC50: 10000 µM
BEL-7402; Homo sapiens, Bel-7402, 72 h, read-out: IC50 calculated based on the concentration of dihydroxyacetone
  IC50: 6820 µM
H460; Homo sapiens, NCI-H460, 72 h, read-out: IC50 calculated based on the concentration of dihydroxyacetone
  IC50: 3790 µM
SMMC-7721; Homo sapiens, SMMC-7721, 72 h, read-out: IC50 calculated based on the concentration of dihydroxyacetone
  IC50: 5090 µM
HL-60; Homo sapiens, HL-60, 72 h, read-out: IC50 calculated based on the concentration of dihydroxyacetone
  IC50: 2780 µM
U87MG; Homo sapiens, U-87 MG, 72 h, read-out: IC50 calculated based on the concentration of dihydroxyacetone
  IC50: 9210 µM
DU145; Homo sapiens, DU-145, 72 h, read-out: IC50 calculated based on the concentration of dihydroxyacetone
  IC50: 7680 µM
TF1-α; Homo sapiens, TF-1, 72 h, read-out: IC50 calculated based on the concentration of dihydroxyacetone
  IC50: 4890 µM
HCC1937; Homo sapiens, HCC1937, 72 h, read-out: IC50 calculated based on the concentration of dihydroxyacetone
  IC50: 10200 µM
